# Numbers after ± are expanded uncertainties.
# Assay: xn = mol fraction of the nth substance listed
# Conditions: Constant-volume piezometry
structure (smiles),measurement,setting,value
CCCCC [pentane] + CCCO,mass density,"503.15 K, 5980 kPa, Fluid (supercritical or subcritical phases), x1 = 0.8",288.67 ± 1.5 kg/m3
same,mass density,"503.15 K, 6051 kPa, Fluid (supercritical or subcritical phases), x1 = 0.9",301.99 ± 1.5 kg/m3
same,mass density,"503.15 K, 6149 kPa, Fluid (supercritical or subcritical phases), x1 = 0.8",299.5 ± 1.5 kg/m3
same,mass density,"503.15 K, 6295 kPa, Fluid (supercritical or subcritical phases), x1 = 0.9",312.64 ± 1.6 kg/m3
same,mass density,"503.15 K, 6413 kPa, Liquid, x1 = 0.2",470.91 ± 0.96 kg/m3
same,mass density,"503.15 K, 6490 kPa, Fluid (supercritical or subcritical phases), x1 = 0.5",373.27 ± 1.9 kg/m3
same,mass density,"503.15 K, 6551 kPa, Fluid (supercritical or subcritical phases), x1 = 0.8",315.69 ± 1.6 kg/m3
same,mass density,"503.15 K, 6924 kPa, Fluid (supercritical or subcritical phases), x1 = 0.9",334.38 ± 1.7 kg/m3
same,mass density,"503.15 K, 7052 kPa, Fluid (supercritical or subcritical phases), x1 = 0.8",334.2 ± 1.7 kg/m3
same,mass density,"503.15 K, 7423 kPa, Fluid (supercritical or subcritical phases), x1 = 0.8",345.74 ± 1.7 kg/m3
same,mass density,"503.15 K, 7481 kPa, Fluid (supercritical or subcritical phases), x1 = 0.5",398.56 ± 2 kg/m3
same,mass density,"503.15 K, 7825 kPa, Fluid (supercritical or subcritical phases), x1 = 0.9",354.5 ± 1.8 kg/m3
same,mass density,"503.15 K, 8266 kPa, Fluid (supercritical or subcritical phases), x1 = 0.8",362.32 ± 1.8 kg/m3
same,mass density,"503.15 K, 8559 kPa, Fluid (supercritical or subcritical phases), x1 = 0.5",417.68 ± 2.1 kg/m3
same,mass density,"503.15 K, 10489 kPa, Fluid (supercritical or subcritical phases), x1 = 0.5",441.45 ± 2.2 kg/m3
same,mass density,"503.15 K, 10609 kPa, Liquid, x1 = 0.2",510.19 ± 1 kg/m3
same,mass density,"503.15 K, 11537 kPa, Fluid (supercritical or subcritical phases), x1 = 0.5",451.78 ± 2.3 kg/m3
same,mass density,"503.15 K, 12022 kPa, Fluid (supercritical or subcritical phases), x1 = 0.9",407.75 ± 2 kg/m3
same,mass density,"503.15 K, 12689 kPa, Fluid (supercritical or subcritical phases), x1 = 0.8",418.68 ± 2.1 kg/m3
same,mass density,"503.15 K, 14223 kPa, Fluid (supercritical or subcritical phases), x1 = 0.5",468.71 ± 2.4 kg/m3
same,mass density,"503.15 K, 18302 kPa, Liquid, x1 = 0.2",547.72 ± 1.1 kg/m3
same,mass density,"503.15 K, 21559 kPa, Fluid (supercritical or subcritical phases), x1 = 0.8",467.26 ± 2.4 kg/m3
same,mass density,"503.15 K, 26707 kPa, Fluid (supercritical or subcritical phases), x1 = 0.5",519.99 ± 2.6 kg/m3
same,mass density,"503.15 K, 30356 kPa, Fluid (supercritical or subcritical phases), x1 = 0.8",496.72 ± 2.5 kg/m3
same,mass density,"503.15 K, 30587 kPa, Liquid, x1 = 0.2",582.08 ± 1.2 kg/m3
same,mass density,"503.15 K, 37782 kPa, Liquid, x1 = 0.2",595.68 ± 1.2 kg/m3
same,mass density,"503.15 K, 41722 kPa, Fluid (supercritical or subcritical phases), x1 = 0.8",521.26 ± 2.6 kg/m3
same,mass density,"504.15 K, 4315 kPa, Liquid, x1 = 0.2",419.14 ± 0.86 kg/m3
same,mass density,"508.15 K, 4020 kPa, Gas, x1 = 0.2",114.44 ± 0.37 kg/m3
same,mass density,"508.15 K, 4961 kPa, Liquid, x1 = 0.2",419.05 ± 0.85 kg/m3
same,mass density,"508.65 K, Liquid, x1 = 0.2",391.58 ± 2.4 kg/m3
same,mass density,"509.65 K, Liquid, x1 = 0.2",383.71 ± 2.3 kg/m3
same,mass density,"510.15 K, 4548 kPa, Liquid, x1 = 0.2",383.7 ± 0.78 kg/m3
same,mass density,"510.35 K, Liquid, x1 = 0.2",378.89 ± 2.3 kg/m3
same,mass density,"511.15 K, 4773 kPa, Liquid, x1 = 0.2",391.53 ± 0.8 kg/m3
same,mass density,"512.85 K, Liquid, x1 = 0.2",350.77 ± 2.1 kg/m3
same,mass density,"513.15 K, 933 kPa, Gas, x1 = 0.5",15.53 ± 0.05 kg/m3
same,mass density,"513.15 K, 1283 kPa, Gas, x1 = 0.8",22.54 ± 0.07 kg/m3
same,mass density,"513.15 K, 1508 kPa, Gas, x1 = 0.2",24.94 ± 0.08 kg/m3
same,mass density,"513.15 K, 1686 kPa, Gas, x1 = 0.5",30 ± 0.09 kg/m3
same,mass density,"513.15 K, 1923 kPa, Gas, x1 = 0.8",36.71 ± 0.11 kg/m3
same,mass density,"513.15 K, 2226 kPa, Gas, x1 = 0.5",40.51 ± 0.12 kg/m3
same,mass density,"513.15 K, 2615 kPa, Gas, x1 = 0.5",51.12 ± 0.16 kg/m3
same,mass density,"513.15 K, 2796 kPa, Gas, x1 = 0.8",58.44 ± 0.18 kg/m3
same,mass density,"513.15 K, 2974 kPa, Gas, x1 = 0.2",53.03 ± 0.17 kg/m3
same,mass density,"513.15 K, 3284 kPa, Gas, x1 = 0.5",67.55 ± 0.21 kg/m3
same,mass density,"513.15 K, 3295 kPa, Gas, x1 = 0.8",73.83 ± 0.23 kg/m3
same,mass density,"513.15 K, 3462 kPa, Gas, x1 = 0.5",72.63 ± 0.23 kg/m3
same,mass density,"513.15 K, 3488 kPa, Gas, x1 = 0.9",83.42 ± 0.26 kg/m3
same,mass density,"513.15 K, 3816 kPa, Gas, x1 = 0.2",91.46 ± 0.29 kg/m3
same,mass density,"513.15 K, 3844 kPa, Gas, x1 = 0.5",88.95 ± 0.28 kg/m3
same,mass density,"513.15 K, 4033 kPa, Gas, x1 = 0.5",95.89 ± 0.33 kg/m3
same,mass density,"513.15 K, 4156 kPa, Fluid (supercritical or subcritical phases), x1 = 0.8",106.45 ± 0.54 kg/m3
same,mass density,"513.15 K, 4165 kPa, Gas, x1 = 0.2",114.41 ± 0.4 kg/m3
same,mass density,"513.15 K, 4349 kPa, Fluid (supercritical or subcritical phases), x1 = 0.9",123.41 ± 0.63 kg/m3
same,mass density,"513.15 K, 4538 kPa, Fluid (supercritical or subcritical phases), x1 = 0.9",134.18 ± 0.69 kg/m3
same,mass density,"513.15 K, 4567 kPa, Fluid (supercritical or subcritical phases), x1 = 0.5",121.95 ± 1.1 kg/m3
same,mass density,"513.15 K, 4703 kPa, Liquid, x1 = 0.2",350.76 ± 0.87 kg/m3
same,mass density,"513.15 K, 4837 kPa, Fluid (supercritical or subcritical phases), x1 = 0.5",144.18 ± 0.99 kg/m3
same,mass density,"513.15 K, 4850 kPa, Fluid (supercritical or subcritical phases), x1 = 0.8",140.37 ± 0.72 kg/m3
same,mass density,"513.15 K, 4865 kPa, Liquid, x1 = 0.2",378.83 ± 0.86 kg/m3
same,mass density,"513.15 K, 4965 kPa, Fluid (supercritical or subcritical phases), x1 = 0.9",164.03 ± 0.84 kg/m3
same,mass density,"513.15 K, 4968 kPa, Fluid (supercritical or subcritical phases), x1 = 0.5",154.56 ± 1.2 kg/m3
same,mass density,"513.15 K, 4968 kPa, Liquid, x1 = 0.2",383.64 ± 0.8 kg/m3
same,mass density,"513.15 K, 5032 kPa, Fluid (supercritical or subcritical phases), x1 = 0.8",156.12 ± 0.81 kg/m3
same,mass density,"513.15 K, 5068 kPa, Fluid (supercritical or subcritical phases), x1 = 0.2",391.49 ± 2 kg/m3
same,mass density,"513.15 K, 5068 kPa, Liquid, x1 = 0.2",391.49 ± 0.83 kg/m3
same,mass density,"513.15 K, 5086 kPa, Fluid (supercritical or subcritical phases), x1 = 0.5",165.22 ± 0.84 kg/m3
same,mass density,"513.15 K, 5197 kPa, Fluid (supercritical or subcritical phases), x1 = 0.8",169.87 ± 0.89 kg/m3
same,mass density,"513.15 K, 5255 kPa, Fluid (supercritical or subcritical phases), x1 = 0.5",182.94 ± 0.95 kg/m3
same,mass density,"513.15 K, 5265 kPa, Fluid (supercritical or subcritical phases), x1 = 0.8",176.11 ± 0.92 kg/m3
same,mass density,"513.15 K, 5295 kPa, Fluid (supercritical or subcritical phases), x1 = 0.9",189.54 ± 0.98 kg/m3
same,mass density,"513.15 K, 5344 kPa, Fluid (supercritical or subcritical phases), x1 = 0.8",180.91 ± 0.94 kg/m3

# From the NIST ThermoML archive (doi:10.1016/j.jct.2016.10.023)
